From US20220401428A1, “Method for Treatment of Alzheimer's Disease” (University of Kentucky Research Foundation, priority 2019, published 2022)

Legend:
[1] = test system: ADHIP rats; assay: Behavior testing of sEHi-treated ADHIP rats (composite z-score); format: in vivo, rat; settings: late stage (>16 months old) and early stage (12 months old) cohorts, treated vs untreated
Method: (§1) Pharmacological treatment on animals To increase plasma eicosanoids levels, the animals were treated with TPPU (1-Trifluoromethoxyphenyl-3-(1-propionylpiperidin-4-yl) urea, N-[1-(1-Oxopropyl)-4-piperidinyl]-N′-[4-(trifluoromethoxy)phenyl]-urea), a soluble epoxide hydrolase inhibitor (sEHi) (HY-101294, MedChem Express). […] 12 months old (n=5; early-stage) and 16 months old (n=6; late stage) animals were subjected to treatment with sEHi. For treatment at early-stage, the drug was administered through drinking water (3 mg/L, daily) and intravenous injection (20 μg/kg, once a week) to ensure equal intake for each animal. […] Amount of water intake was measured daily.
Behavior testing Forelimb use test/Cylinder test, inclined plane, hind limb clasping test. […] Animal forelimb deficit was evaluated by forelimb-to-wall contact time in cylinder test. […] Abnormalities in the animal hind limbs were assessed by scoring the severity of hind limb clasping.
Rotarod assessment Motor coordination and balance were tested by the rotarod (Rotamex 5, Columbus Instrument, OH) test^27. […] The remaining read-outs were averaged, and a group average was calculated for each genotype. […]
Morris Water Maze Spatial learning and long-term memory retention were tested in a 1.5 m diameter Morris Water Maze, as previously described^15. […] Trials were recorded by EthoVision XT software (Noldus, VA). […]

[2] = test system: ADHIP rats; assay: Hypoxia markers in brain and brain capillary lysates of sEHi-treated ADHIP rats; format: in vivo, rat; settings: treated vs untreated, HIF-1α, HIF-2α, Arg-1, Arg-2, arginase activity, mitochondrial DNA
Method: as §1, with “daily. […]” for “daily.”
Enzyme-linked immune absorbance assay (ELISA) Levels of amylin in human brain samples were measured using sandwich amylin ELISA from Millipore (EZHA-52K). Levels of amylin in human CSF and animal samples were measured using amylin sandwich ELISA from R&D system (EIA-AMY). Aβ levels in animal CSF were measured using high sensitivity electrochemiluminescence ELISA (MSD 6E10, K15200G-2, Meso Scale Discovery). […]
Arginase activity Arginase activity in rat brain capillaries were measured using arginase activity kit (MAK112, Sigma). […]
Mitochondria DNA extraction and analysis Protocol for quantifying mitochondrial DNA content was described in Ref 32. […] DNA purity was assessed by ensuring the A260/A280 ratio was >1.8. […]

[3] = test system: ADHIP rats; assay: Histology and immunohistochemistry of brains of sEHi-treated ADHIP rats; format: in vivo, rat; settings: treated vs untreated; for extent of axonal degeneration: MBP and LFB staining; for amylin deposition in brain capillaries: immunohistochemical analysis
Method: Pharmacological treatment on animals To increase plasma eicosanoids levels, the animals were treated with TPPU (1-Trifluoromethoxyphenyl-3-(1-propionylpiperidin-4-yl) urea, N-[1-(1-Oxopropyl)-4-piperidinyl]-N′-[4-(trifluoromethoxy)phenyl]-urea), a soluble epoxide hydrolase inhibitor (sEHi) (HY-101294, MedChem Express). […] 12 months old (n=5; early-stage) and 16 months old (n=6; late stage) animals were subjected to treatment with sEHi. For treatment at early-stage, the drug was administered through drinking water (3 mg/L, daily) and intravenous injection (20 μg/kg, once a week) to ensure equal intake for each animal. For treatment at late-stage, the drug was administered through and intravenous injection (20 μg/kg, daily, 1 month) and then through drinking water (3 mg/L, daily, 1 month). Amount of water intake was measured daily.
Histology and demyelination scoring Myelination in rat brains was analyzed by staining with Luxol fast blue (LFB) dye. Scoring analysis method was performed as described previously^15. Microhemorrhages in rat brains were stained with Prussian blue dye and analyzed as described previously^15. Congo red staining was performed on the human brains as previously^11 described.
Immunohistochemistry. Formalin fixed, paraffin embedded brain and pancreas tissues from humans, ADHIP, AD, WT, and AD-AKO rats were used. Tissues were processed as previously described^11,14,15,27. After tissue rehydration, the endogenous peroxidase was quenched in 3% H2O2 in methanol for 30 minutes. For amylin and Aβ antigen retrieval, sections were treated with 100% formic acid for 5 minutes, followed by 0.5% pepsin digestion in 5 mM HCl for 20 minutes at 37° C. To retrieve intra-neuronal amylin antigen (rat brains) as well as other antigens, tissue sections were heated in citrate buffer for 30 minutes. Non-specific antibody binding was blocked by 15% horse serum for 1 hour at room temperature (RT). Primary antibodies against amylin, human Aβ, Iba1, CD68 or myelin basic protein (MBP) was incubated on slides overnight at 4° C. Sections were then washed and incubated with secondary antibodies. Signal was developed with DAB or AEC peroxidase substrate. For co-staining with two antibodies, after the signal was developed for the first antibody, sections were then rinsed in water. Non-specific antibody binding was blocked with 10% normal goat serum, and the sections were incubated with the second primary antibody overnight at 4° C. Sections were then washed and incubated with AP-conjugated secondary antibody, and developed with StayGreen/AP chromogen substrate. Sections were mounted with aqueous mounting medium. The specificity of the amylin antibody in both human and rat brain tissues was established in previous studies^11,14,15,27.
Imaging analysis Wide-field images of stained tissue sections were generated by stitching images obtained from the 10× objective lens (Nikon NIS-Element Software). Higher magnification images for specific tissue area were obtained using the 40× objective lens. The immunoreactivity signal for each antibody was analyzed by ImageJ. Clearly defined-signal pixels were selected to establish the RGB profile of the color of interest. The threshold for each color signal was adjusted to reduce background noise. The established RGB profile and threshold were applied to a Macro script command, using Color Deconvolution plugin in ImageJ. The staining area was calculated using the following equation: […]

[4] = reference 24; cited from earlier work
[5] = test system: LRP1; assay: LRP1 protein expression in rat brain microvascular ECs (Western blot, immunofluorescence); format: cell-based
From the text: To study the role of miRNA signaling in amylin-induced suppression of endothelial LRP1 expression, transfection of rat brain microvascular ECs was used with miR-103-3p (MCR01039)[…](SEQ ID NO: 5), miR-107-3p (MCR01045)[…](SEQ ID NO: 6) and control (MCH00000) (https://www.abmgood.com/mirna-mimic-negative-control-mch00000.html). Antagomir miR-103-3p (IH-320345-05-0005)(SEQ ID NO: 5), miR-107-3p (IH-320348-05-0005)(SEQ ID NO: 6) and negative control (IN-001005-01-05) (https://www.biocompare.com/22445-RNA/4995709-miRIDIAN-microRNA-Hairpin-Inhibitor-Negative-Control-1-5-nmol/#productspecs) (Dharmacon Inc.) were used in an attempt to rescue LRP1 expression. All transfections were done using RNAiMAX (Invitrogen) as per manufacturer's recommended protocol. Briefly, ECs were plated at 50% confluency in 6-well plates followed by co-transfection with either 100 nM of 103-3p and 107-3p mimics or antagomirs along with their respective negative controls. After 12-hours, antagomir-treated cell groups were further treated with 10 uM human amylin for 24-hours. After 36-hours of transfection, cells were harvested for Western blot analysis.
In immunofluorescence experiments, formalin-fixed, paraffin-embedded human brain tissue was used and processed as previously described^16,18,39, brain capillaries from HIP and WT rats isolated as previously described^18. and cultured ECs. Anti-amylin (1:200; clone E5; SC-377530; Santa Cruz), anti-collagen IV (1:500; ab6586; abcam), anti-alpha smooth muscle actin-Alexa Fluor 405 (1:200; ab210128, abcam), anti-caveolin-1 (1:100; sc-894; Santa Cruz, Tex.), anti-LRP1 (1:500; sc-57351; Santa Cruz), anti-4HNE (1:200; ab46545; abcam) were the primary antibodies. Secondary antibodies were: Alexa Fluor 488 conjugated anti-mouse IgG (1:300; A11029; Invitrogen), Alexa Fluor 568 conjugated anti-rabbit IgG (1:200; A11036; Invitrogen), Alexa Fluor 568 conjugated anti-mouse IgG (1:300; A11004; Invitrogen). Nuclei were counterstained with DAPI mounting media. For triple staining of human brain tissues, smooth muscle actin-Alexa Fluor 405 antibody was added after staining with human amylin and collagen IV; DAPI free mounting media was used. For Thioflavin S staining, after secondary antibody incubation, brain slides were incubated in 0.5% Thioflavin S for 30 minutes at room temperature. Slides were then incubated for 3 minutes in 70% ethanol, 5 minutes in 0.2% Sudan black before washing and mounting. Immunocytochemistry was performed as described previously (39, 40).
Western blot analysis was performed on isolated brain capillaries, brain tissue homogenate and plasma from rats. Tissues were processed as described previously^16,18,28,39. RIPA buffer with 2% SDS was used to retrieve Aβ monomers from frozen brain samples^41. […]

[6] = listed as inhibitor of soluble epoxide hydrolase (sEH)

Compound: CCC(=O)N1CCC(NC(=O)Nc2ccc(OC(F)(F)F)cc2)CC1 [sEHi, 1-(1-propanoylpiperidin-4-yl)-3-[4-(trifluoromethoxy)phenyl]urea]
- behavior deficits [1]: attenuation of functional decline
- behavior deficits [1, 6]: reduced behavior deficits
- brain accumulation of hypoxia markers [2]: lowered brain accumulation of hypoxia markers
- extent of axonal degeneration [3]: ameliorated
- extent of axonal degeneration [3, 6]: reduced
- number of brain microhemorrhages ([3]; Prussian blue): reduced
- amylin deposition in brain capillaries [3]: reduced capillary amylin deposition
- amylin deposition in brain capillaries [3, 6]: reduced amylin deposition in brain capillaries
- level of circulating amylin [4]: lower the level of circulating amylin

Compound: miR-103 and miR-107 mimics: co-transfected miRNA mimics miR-103-3p (SEQ ID NO: 5) and miR-107-3p (SEQ ID NO: 6) (chain 1 AGCAGCAUUGUACAGGGCUAUGA; chain 2 AGCUUCUUUACAGUGUUGCCUUGU; listed as RNA, chemistry not given here)
- average LRP1 expression level ([5]; ECs co-transfected with 100 nM mimics, 24 hours, vs miR-control, Western blot): lower

Compound: rat amylin
- LRP1 protein levels ([5]; ECs, 10 μM, 24-hour incubation, confocal microscopy and Western blot): no effect
